Data: US9850283B2, “Macrocyclic inhibitors of the PD-1/PD-L1 and CD80(B7-1)/PD-L1 protein/protein interactions” (BRISTOL-MYERS SQUIBB COMPANY, priority 2013, dated 2017)
Where two headings read alike, the source gives them in different places. Starred links: 1 amine or outer side, 2 acyl side, 3 side chain; linkers in the order of their positions; H or OH if unused. Positions of bridges follow the written chain, without caps; N, C: chain ends. Non-standard residues stand in square brackets, D forms with d. Residues, ends and D or L forms follow the SMILES beside them. ξ: configuration not given here. X2 = CCOc1ccc(-c2[nH]c3ccccc3c2C[C@H](N[*:1])C(=O)[*:2])cc1; Trp(7-Me) = Cc1cccc2c(C[C@H](N)C(=O)O)c[nH]c12; Bta = N[C@@H](Cc1csc2ccccc12)C(=O)O; cisHyp = O=C(O)[C@@H]1C[C@H](O)CN1; Hyp = O=C(O)[C@@H]1C[C@@H](O)CN1; NMeF = CN[C@@H](Cc1ccccc1)C(=O)O; dNMeNle = CCCC[C@@H](NC)C(=O)O; NMeNle = CCCC[C@H](NC)C(=O)O; NMeM = CN[C@@H](CCSC)C(=O)O; ξR = N=C(N)NCCCC(N)C(=O)O; NMeA = CN[C@@H](C)C(=O)O; Orn = NCCC[C@H](N)C(=O)O; dDap = NC[C@@H](N)C(=O)O; dThz = O=C(O)[C@H]1CSCN1; Dab = NCC[C@H](N)C(=O)O; Dap = NC[C@H](N)C(=O)O; ξP = O=C(O)C1CCCN1; ξC = NC(CS)C(=O)O; Sar = CNCC(=O)O

Key:
[1] = molecular target: T1, Human PD-L1/PD-1 (Homo sapiens, UniProt Q9NZQ7); test: HTRF PD-1-Ig/PD-L1-His binding assay (human PD-L1)
T1 construct: made in house; host or cells: HEK293T
In short: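 Ig- and His-fused extracellular PD-1/PD-L1 binding in BSA/Tween-20 dPBS. HTRF with Eu anti-Ig (1 nM final) and APC anti-His (20 nM final).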

[2] = molecular target: T2, LK35.2-hPD-L1 cells / PE-labeled PD-1-Ig (Homo sapiens, UniProt Q9NZQ7); test: LK35.2-hPD-L1 cell binding high-content screening assay; type: cell-based
T2 construct: expressed in transfected cells; host or cells: LK35.2 mouse B cell line
In short: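 Fluorescent PD-1-Ig binding to PD-L1-expressing LK35.2 cells, imaged after washing. Conditions: 1 nM PE-PD-1-Ig, 37 °C, 1 h, RPMI with 10% fetal calf serum.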

[3] = cluster symbol, read-out: HTRF IC50 cluster
[4] = cluster symbol, cell line of CBA not given (LK35.2-hPD-L1 or 293T-hPD-L1), read-out: CBA IC50 cluster
[5] = cell binding assay, cell line not given, cluster symbol, read-out: CBA IC50 cluster

T1 sequence (Q9NZQ7 with tags, fused parts or gaps): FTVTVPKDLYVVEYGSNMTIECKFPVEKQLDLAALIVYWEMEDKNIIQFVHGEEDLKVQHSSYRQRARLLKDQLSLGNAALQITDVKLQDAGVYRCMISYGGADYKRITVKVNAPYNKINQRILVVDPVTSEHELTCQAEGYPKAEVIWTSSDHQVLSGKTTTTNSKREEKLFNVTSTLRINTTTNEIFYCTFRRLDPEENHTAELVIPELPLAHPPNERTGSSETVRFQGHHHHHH
T2 sequence (Q9NZQ7 19-290): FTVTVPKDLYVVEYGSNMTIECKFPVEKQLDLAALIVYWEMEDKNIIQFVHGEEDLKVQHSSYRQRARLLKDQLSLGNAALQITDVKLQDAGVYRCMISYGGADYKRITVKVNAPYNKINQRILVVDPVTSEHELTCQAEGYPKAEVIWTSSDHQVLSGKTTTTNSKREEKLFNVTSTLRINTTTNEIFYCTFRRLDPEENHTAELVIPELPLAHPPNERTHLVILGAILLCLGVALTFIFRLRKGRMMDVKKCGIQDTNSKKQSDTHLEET

Compound | IC50 ([1]; value given instead of cluster, read-out: HTRF IC50 value) [nM] | IC50 ([2]; cell binding assay, cell line not given, value given instead of cluster, read-out: CBA IC50 value) [nM] | IC50 [1, 3] [nM] | IC50 [2, 4] [nM] | IC50 [2, 5] [nM]
CCCC[C@H]1C(=O)N(C)CC(=O)N[C@@H](CC(=O)O)C(=O)N[C@@H](C(C)C)C(=O)N(C)[C@@H](Cc2ccccc2)C(=O)N[C@@H](Cc2ccc(O)cc2)C(=O)N2CSC[C@@H]2C(=O)N[C@@H](Cc2c[nH]c3ccccc23)C(=O)N[C@@H](Cc2ccc(O)cc2)C(=O)N[C@@H](CC(C)C)C(=O)N[C@H](C(=O)NCC(N)=O)CSCC(=O)N[C@@H](Cc2ccccc2)C(=O)N(C)[C@@H](Cc2ccccc2)C(=O)N1C [Example 3601] ({CH2CO}-F[NMeF][NMeNle][Sar]DV[NMeF]Y[dThz]WYLCG-NH2; thioether N-13) | 6.91 | 1.79 | – | – | –
CCCC[C@@H]1C(=O)N(C)[C@H](CCCC)C(=O)N[C@@H](C)C(=O)N[C@@H](C(=O)NCC(N)=O)CSCC(=O)N[C@@H](Cc2ccc(O)cc2)C(=O)N2CCCC2C(=O)N[C@H](CC(=O)O)C(=O)N2CCC[C@H]2C(=O)N[C@H](CN)C(=O)N[C@@H](CCC(=O)O)C(=O)N2CCCC2C(=O)N[C@H](Cc2c[nH]c3ccccc23)C(=O)N[C@@H](CCN)C(=O)N[C@@H](Cc2c[nH]c3ccccc23)C(=O)N1C (stereo partly shown) [Example 1209] ({CH2CO}-Y[ξP][dD]P[dDap]E[ξP][dW][Dab]W[dNMeNle][dNMeNle]A[dC]G-NH2; thioether N-14) | – | – | 6.76 to 30.3 | 4.78 to 72.9 | –
CCCC[C@H]1C(=O)N[C@@H](C)C(=O)NC(C(=O)NCC(N)=O)CSCC(=O)N[C@@H](Cc2ccc(O)cc2)C(=O)N(C)[C@@H](C)C(=O)N[C@@H](CC(N)=O)C(=O)N2CCC[C@H]2C(=O)N[C@@H](CN)C(=O)N[C@@H](CC(C)C)C(=O)N2CCC[C@H]2C(=O)N[C@@H](Cc2c[nH]c3ccccc23)C(=O)N[C@@H](CO)C(=O)N[C@@H](Cc2c[nH]c3ccccc23)C(=O)N(C)[C@@H](CCSC)C(=O)N1C (stereo partly shown) [Example 9093] ({CH2CO}-Y[NMeA]NP[Dap]LPWSW[NMeM][NMeNle]A[ξC]G-NH2; thioether N-14) | – | – | 6.76 to 30.3 | – | 4.78 to 72.9
CCCC[C@H]1C(=O)N(C)[C@@H](CCCC)C(=O)N[C@@H](CCN)C(=O)N[C@H](C(=O)NCC(N)=O)CSCC(=O)N[C@@H](Cc2ccc(O)cc2)C(=O)N(C)[C@@H](C)C(=O)N[C@@H](CC(=O)O)C(=O)N2CCC[C@H]2C(=O)N[C@@H](Cc2cnc[nH]2)C(=O)N[C@@H](CCC(=O)O)C(=O)N2C[C@H](O)C[C@H]2C(=O)N[C@@H](Cc2c[nH]c3ccccc23)C(=O)N[C@@H](CO)C(=O)N[C@@H](Cc2c[nH]c3ccccc23)C(=O)N1C [Example 5029] ({CH2CO}-Y[NMeA]DPHE[Hyp]WSW[NMeNle][NMeNle][Dab]CG-NH2; thioether N-14) | – | – | 0.385 to 6.74 | – | 0.158 to 4.71
CCCC[C@H]1C(=O)N(C)[C@@H](CCCC)C(=O)N[C@@H](CCC(=O)O)C(=O)N[C@H](C(=O)NCC(N)=O)CSCC(=O)N[C@@H](Cc2ccc(O)cc2)C(=O)N(C)[C@@H](C)C(=O)N[C@@H](CC(N)=O)C(=O)N2CCC[C@H]2C(=O)N[C@@H](Cc2c[nH]cn2)C(=O)N[C@@H](CCCCN)C(=O)N2C[C@H](O)C[C@H]2C(=O)N[C@@H](Cc2c[nH]c3ccccc23)C(=O)N[C@@H](CCCCN)C(=O)N[C@@H](Cc2c[nH]c3ccccc23)C(=O)N1C [Example 5100] ({CH2CO}-Y[NMeA]NPHK[Hyp]WKW[NMeNle][NMeNle]ECG-NH2; thioether N-14) | – | – | 6.76 to 30.3 | – | 0.158 to 4.71
CCCC[C@H]1C(=O)N(C)[C@@H](CCCC)C(=O)N[C@@H]([C@@H](C)O)C(=O)N[C@H](C(=O)NCC(N)=O)CSCC(=O)N[C@@H](Cc2ccccc2)C(=O)N(C)[C@@H](C)C(=O)N[C@@H](CC(N)=O)C(=O)N2CCC[C@H]2C(=O)N[C@@H](Cc2cnc[nH]2)C(=O)N[C@@H](CC(C)C)C(=O)N(C)CC(=O)N[C@@H](Cc2c[nH]c3ccccc23)C(=O)N[C@@H](CO)C(=O)N[C@@H](Cc2c[nH]c3ccccc23)C(=O)N1C [Example 5021] ({CH2CO}-F[NMeA]NPHL[Sar]WSW[NMeNle][NMeNle]TCG-NH2; thioether N-14) | – | – | > 30.5 | – | > 74.3
CCCC[C@H]1C(=O)N(C)CC(=O)N[C@@H](CC(=O)O)C(=O)N[C@@H](C(C)C)C(=O)N(C)[C@@H](Cc2ccccc2)C(=O)N[C@@H](Cc2ccc(O)cc2)C(=O)N(C)CC(=O)N[C@@H](Cc2c[nH]c3ccccc23)C(=O)N[C@@H](Cc2ccc(O)cc2)C(=O)N[C@@H](CC(C)C)C(=O)N[C@H](C(=O)NCC(=O)O)CSCC(=O)N[C@@H](Cc2ccccc2)C(=O)N(C)[C@@H](Cc2ccccc2)C(=O)N1C [Example 3517] (HELM PEPTIDE1{[O=C(C[*:3])[*:2]].F.[meF].[CCCC[C@@H](C(=O)[*:2])N(C)[*:1]].[Sar].D.V.[meF].Y.[Sar].W.Y.L.C.G}$PEPTIDE1,PEPTIDE1,1:R3-14:R3$$$V2.0) | – | – | > 30.5 | – | > 74.3
CCCC[C@H]1C(=O)N(C)[C@@H](CCCC)C(=O)N[C@@H](CCCNC(=N)N)C(=O)N[C@H](C(=O)NCC(=O)O)CSCC(=O)N[C@@H](Cc2ccc(O)cc2)C(=O)N(C)[C@@H](C)C(=O)N[C@@H](CC(N)=O)C(=O)N2CCC[C@H]2C(=O)N[C@@H](CN)C(=O)N[C@@H](CC(C)C)C(=O)N2C[C@@H](O)C[C@H]2C(=O)N[C@@H](Cc2c[nH]c3ccccc23)C(=O)N[C@@H](CO)C(=O)N[C@@H](Cc2csc3ccccc23)C(=O)N1C [Example 1141] ({CH2CO}-Y[NMeA]NP[Dap]L[cisHyp]WS[Bta][NMeNle][NMeNle]RCG-OH; thioether N-14) | – | – | 0.385 to 6.74 | 0.158 to 4.71 | –
CCCC[C@H]1C(=O)N(C)[C@@H](CCSC)C(=O)N[C@@H](CCCNC(=N)N)C(=O)NC(C(=O)NCC(N)=O)CSCC(=O)N[C@@H](Cc2ccc(O)cc2)C(=O)N(C)[C@@H](C)C(=O)N[C@@H](CC(N)=O)C(=O)N2CCC[C@H]2C(=O)N[C@@H](Cc2cnc[nH]2)C(=O)N[C@@H](CO)C(=O)N2CCC[C@H]2C(=O)N[C@@H](Cc2c[nH]c3ccccc23)C(=O)N[C@@H](CO)C(=O)N[C@@H](Cc2csc3ccccc23)C(=O)N1C (stereo partly shown) [Example 9106] ({CH2CO}-Y[NMeA]NPHSPWS[Bta][NMeNle][NMeM]R[ξC]G-NH2; thioether N-14) | – | – | 0.385 to 6.74 | – | 4.78 to 72.9
CCCC[C@H]1C(=O)N[C@@H](CCCNC(=N)N)C(=O)NC(C(=O)NCC(N)=O)CSCC(=O)N[C@@H](Cc2ccc(O)cc2)C(=O)N(C)[C@@H](C)C(=O)N[C@@H](CC(N)=O)C(=O)N2CCC[C@H]2C(=O)N[C@@H](Cc2cnc[nH]2)C(=O)N[C@@H](CO)C(=O)N2C[C@H](O)C[C@H]2C(=O)N[C@@H](Cc2c[nH]c3ccccc23)C(=O)N[C@@H](CO)C(=O)N[C@@H](Cc2c[nH]c3ccccc23)C(=O)N(C)[C@@H](CCSC)C(=O)N1C (stereo partly shown) [Example 9113] ({CH2CO}-Y[NMeA]NPHS[Hyp]WSW[NMeM][NMeNle]R[ξC]G-NH2; thioether N-14) | – | – | 6.76 to 30.3 | – | 4.78 to 72.9
CCCC[C@H]1C(=O)N(C)[C@@H](CCCC)C(=O)N[C@@H](CCCNC(=N)N)C(=O)N[C@H](C(=O)NCC(N)=O)CSCC(=O)N[C@@H](Cc2ccc(O)cc2)C(=O)N(C)[C@@H](C)C(=O)N[C@@H](CC(N)=O)C(=O)N2CCC[C@H]2C(=O)N[C@@H](Cc2cnc[nH]2)C(=O)N[C@@H](CC(C)C)C(=O)N2CCC[C@H]2C(=O)N[C@@H](Cc2c[nH]c3ccccc23)C(=O)N[C@@H](CO)C(=O)N[C@@H](Cc2c[nH]c3c(C)cccc23)C(=O)N1C [Example 1144] ({CH2CO}-Y[NMeA]NPHLPWS[Trp(7-Me)][NMeNle][NMeNle]RCG-NH2; thioether N-14) | – | – | > 30.5 | 4.78 to 72.9 | –
CCCC[C@H]1C(=O)N(C)[C@@H](CCCC)C(=O)N[C@@H](CCCNC(=N)N)C(=O)N[C@H](C(=O)NCC(N)=O)CSCC(=O)N[C@@H](Cc2ccccc2)C(=O)N(C)[C@@H](C)C(=O)N[C@@H](CC(N)=O)C(=O)N2CCC[C@H]2C(=O)N[C@@H](CCCN)C(=O)N[C@@H](CC(C)C)C(=O)N(C)CC(=O)N[C@@H](Cc2c[nH]c3ccccc23)C(=O)N[C@@H](CO)C(=O)N[C@@H](Cc2c[nH]c3ccccc23)C(=O)N1C [Example 1059] ({CH2CO}-F[NMeA]NP[Orn]L[Sar]WSW[NMeNle][NMeNle]RCG-NH2; thioether N-14) | – | – | > 30.5 | > 74.3 | –
CCCC[C@H]1C(=O)N(C)[C@@H](CCCC)C(=O)N[C@@H](CCCNC(=N)N)C(=O)N[C@H](C(=O)NCC(N)=O)CSCC(=O)N[C@@H](Cc2ccccc2)C(=O)N(C)[C@@H](C)C(=O)N[C@@H](CC(N)=O)C(=O)N2CCC[C@H]2C(=O)N[C@@H](CN)C(=O)N[C@@H](CC(C)C)C(=O)N(C)CC(=O)N[C@@H](Cc2c[nH]c3ccccc23)C(=O)N[C@@H](CO)C(=O)N[C@@H](Cc2c[nH]c3ccccc23)C(=O)N1C [Example 1060] ({CH2CO}-F[NMeA]NP[Dap]L[Sar]WSW[NMeNle][NMeNle]RCG-NH2; thioether N-14) | – | – | 6.76 to 30.3 | 4.78 to 72.9 | –
CCCC[C@H]1C(=O)N(C)[C@@H](CCCC)C(=O)NC(CCCNC(=N)N)C(=O)N[C@H](C(=O)NCC(N)=O)CSCC(=O)N[C@@H](Cc2ccc(O)cc2)C(=O)N(C)[C@@H](C)C(=O)N[C@@H](CC(N)=O)C(=O)N2CCC[C@H]2C(=O)N[C@@H](CCN)C(=O)N[C@@H](CC(C)C)C(=O)N2C[C@H](O)C[C@H]2C(=O)N[C@@H](Cc2c[nH]c3ccccc23)C(=O)N[C@@H](CO)C(=O)N[C@@H](Cc2c(-c3ccc(OCC)cc3)[nH]c3ccccc23)C(=O)N1C (stereo partly shown) [Example 7010] ({CH2CO}-Y[NMeA]NP[Dab]L[Hyp]WS[X2][NMeNle][NMeNle][ξR]CG-NH2; thioether N-14) | – | – | 0.385 to 6.74 | – | 4.78 to 72.9
